Laboratory results from US20040023953A1, “Tricylic mercaptomethyl-substituted 2,3-dihydro-quinazolin-5-ones and 2,3-dihydro-benzo-[1,2,4]-thiadiazin-5,5-dioxides as matrix metalloproteinase (MMP) inhibitors” (priority 2000, published 2004).

What was measured:
Type in all cases: biochemical
[1] = target: T1, MMP-2 (gelatinase) (Homo sapiens, UniProt P08253); test: Quantitative fluorescence assay, inhibition of MMP-2; conditions: 10 μM inhibitor; no explicit Ki value since the dixon plot is non-linear
T1 construct: endogenous in cells; host or cells: human dermal fibroblasts (secreted into culture medium)
T1 sequence (P08253 110-660): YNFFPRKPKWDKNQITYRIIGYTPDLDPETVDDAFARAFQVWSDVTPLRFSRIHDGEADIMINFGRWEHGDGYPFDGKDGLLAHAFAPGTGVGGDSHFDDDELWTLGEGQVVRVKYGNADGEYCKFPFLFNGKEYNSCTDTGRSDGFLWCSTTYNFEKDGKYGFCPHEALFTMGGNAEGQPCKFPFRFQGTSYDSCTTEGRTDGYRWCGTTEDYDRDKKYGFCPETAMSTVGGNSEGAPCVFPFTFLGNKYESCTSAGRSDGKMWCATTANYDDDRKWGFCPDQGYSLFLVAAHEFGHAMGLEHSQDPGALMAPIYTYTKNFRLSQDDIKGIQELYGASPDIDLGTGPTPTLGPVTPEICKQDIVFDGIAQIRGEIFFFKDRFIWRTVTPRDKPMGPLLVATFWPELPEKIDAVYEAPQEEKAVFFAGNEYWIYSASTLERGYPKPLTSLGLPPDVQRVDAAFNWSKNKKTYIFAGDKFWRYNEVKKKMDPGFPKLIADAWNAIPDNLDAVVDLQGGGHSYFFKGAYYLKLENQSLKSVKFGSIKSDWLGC
Protocol: Inhibition of the Matrix Metalloproteinase-2 (MMP-2)
MMP-2 (gelatinase) is supplied by cultivated dermal fibroblasts to the culture medium in considerable amounts and is thus easily accessible.
For this purpose, human dermal fibroblasts are obtained according to established standard methods and cultivated and the cell-free culture supernatant is treated with trypsin. Trypsin is then inactivated with a specific inhibitor (TLCK) and active MMP-2 is partially purified by affinity chromatography on gelatin sepharose and subsequent gel filtration on sepharose. MMP-2 was identified and characterized by the availability of a commercial immunoassay.
(§1) Quantitative Fluorescence Assay for Matrix Metalloproteinases
(§2) The fluorescent group Mca is separated from the internal quencher Dpa by enzymatic cleavage of the synthetic substrate Mca-Pro-Leu-Gly-Leu-Dpa-Ala-Arg-NH2 using the respective collagenase. This is accompanied by a great increase in fluorescence in the measuring batch, which can be quantified using a fluorimeter (λex 328 nm, λem 393 nm) and proceeds linearly within the first few minutes. A certain specificity of the test to matrix metalloproteinases follows from the amino acid sequence-Pro-Leu-Gly-Leu-in the substrate, on the one hand, and from the select incubation conditions, on the other hand. Matrix metalloproteinases cleave the substrate at the Gly-Leu bond. The proteolytic residual activity of pre-incubated batches of enzyme and inhibitor is measured, the substrate and enzyme concentrations having been kept constant and the inhibitor concentration having been varied. Three series of measurements using a different substrate concentration were made for each tested inhibitor. The enzyme activity is calculated in fluorescence units per min. on the basis of the time-sensitive fluorescence increase. The Ki values were determined graphically according to the DIXON method (1953) by applying the reciprocal reaction rate 1/v (y axis) against inhibitor concentration (x axis).
(§3) 2 μl inhibitor dissolved in DMSO, or DMSO alone (non-inhibitory approach) 4 μl enzyme (MMP-2 or MMP-9 or catalytic domain of MMP-8)
(§4) 5 min. preliminary incubation of the enzyme-inhibitor mixture at room temperature while stirring start of the reaction with 10 μl substrate dissolved in DMSO recording of the time-sensitive fluorescence increase over a period of 2 min.
(§5) Inhibition of human MMPs by the inhibitors of general formulae Ia and Ib according to the invention

[2] = target: T2, recombinant catalytic domain of MMP-8 (Homo sapiens, UniProt P22894); test: Quantitative fluorescence assay, inhibition of catalytic domain of MMP-8; conditions: for MMP-8 inhibition with 10 μM: 10 μM inhibitor, no explicit Ki value since the dixon plot is non-linear
T2 construct: instead of the whole enzyme only its enzymatically active catalytic domain was cloned into E. coli; made in house; host or cells: E. coli
Text: Cloning and Expression of the Catalytic MMP-8 Domain
The catalytic MMP-8 domain was used as another test enzyme because it has a high degree of stability and is also available as an active enzyme and therefore needs not be activated, which is in consideration as one of the most frequent causes of error since the mercury compounds used for the activation often interfere with the test system and/or the enzyme and in this way can falsify the measuring results. The cloning strategy was directed towards the circumstance that instead of the whole enzyme only its enzymatically active catalytic domain was cloned into E. coli.
The cloning and expression of the recombinant catalytic MMP-8 domain was carried out in accordance with the statements made by SCHNIERER et al. (Schnierer S., Kleine T., Gote T., Hillemann A., Knäuper V., Tschesche H.: The recombinant catalytic domain of human neutrophil collagenase lacks type I collagen substrate specificity. Biochem Biophys Res Comm (1993), vol. 191, No. 2, 319-326).
as §1, §2, §3, §4, §5

[3] = target: T3, MMP-9 (Homo sapiens, UniProt P14780); test: Quantitative fluorescence assay, inhibition of MMP-9; conditions: for MMP-9 inhibition with 10 μM: 10 μM inhibitor, no explicit Ki value since the dixon plot is non-linear; for Ki: DIXON method
T3 construct: from tissue; host or cells: human buffy coat (blood leukocytes)
Protocol: Preparation of the Human Collagenase MMP-9
Native MMP-9 was obtained reproducibly and with good yield and purity from human Buffy Coat. For this purpose, Buffy Coat is brought to a final concentration of 0,4% using 10% (v/v) triton X-100, shaken on ice for 30 min. and then 1 vol. double binding buffer (40 mM Tris-HCl, pH 7.5, 10 mM CaCl2, 1 M NaCl, 0.2% (v/v) triton X-100) is added and shaking on ice is continued for another 30 min.
The solution is centrifuged off at 16,000 rpm on an SS-34 rotor at 4° C. for 15 min. and filtered on glass wool. The filtrate is batched with gelatin agarose equilibrated with binding buffer and shaken on ice for 1 hour.
The charged gelatin agarose is transferred to a column and rinsed in protein-free manner using at least 10 vol. binding buffer. The bound MMP-9 is eluted with 2 gel volumes binding buffer plus 5% (v/v) DMSO.
For an exchange of buffers and simultaneous separation of minor MMP-2 contaminations the eluate can be separated on sephadex G-75 by means of gel filtration. Buffer I (20 mM Tris-HCl, pH 7.5, 5 mM CaCl2, 100mM NaCl, 0.1% (v/v) triton X-100) is used for this purpose.
The resulting eluate contains MMP-9 in the three known configurations: monomer, homodimer, heterodimer. The purity of the enzyme is about 90%, the rest of the foreign proteins being fibronectin and extremely small amounts of TIMPs.
The latent enzyme is activated by incubation at 37° C. using 1/100 vol. trypsin (10 mg/ml), for 30-60 min. Trypsin is inhibited by adding 1 mM PMSF or with a specific inhibitor (TLCK).
as §1
as §2, with “A certain specificity of the test to matrix metalloproteinases follows from the amino acid sequence-Pro-Leu-Gly-Leu-in the substrate, on the one hand, and from the select incubation conditions, on the other hand. Matrix metalloproteinases cleave the substrate at the Gly-Leu bond.” left out, “Three series of measurements using a different substrate concentration were made for each tested inhibitor.” left out, “axis). […]” for “axis).”
5 min. preliminary incubation of the enzyme-inhibitor mixture at room temperature while stirring start of the reaction with 10 μl substrate dissolved in DMSO recording of the time-sensitive fluorescence increase over a period of 2 min. […]

[4] = target: T4, MT1-MMP (recombinant catalytic domain of MMP-14) (Homo sapiens, UniProt P50281); test: Quantitative fluorescence assay, inhibition of MT1-MMP; conditions: for Ki: DIXON method
T4 construct: recombinant catalytic domain of MMP-14
Text: In particular when used as medicaments, specific inhibitors would only influence the desired target enzymes but not disturb the balanced interplay of the other MMPs, thus helping to avoid possible undesired side-effects.
as §1, §2, §5

T2 sequence (P22894 100-262 limits assumed): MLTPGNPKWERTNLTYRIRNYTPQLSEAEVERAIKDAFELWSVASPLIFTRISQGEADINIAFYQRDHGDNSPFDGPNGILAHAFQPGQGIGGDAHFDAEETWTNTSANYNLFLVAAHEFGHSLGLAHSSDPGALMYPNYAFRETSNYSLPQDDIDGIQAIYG
T3 sequence (P14780 107-707 limits assumed): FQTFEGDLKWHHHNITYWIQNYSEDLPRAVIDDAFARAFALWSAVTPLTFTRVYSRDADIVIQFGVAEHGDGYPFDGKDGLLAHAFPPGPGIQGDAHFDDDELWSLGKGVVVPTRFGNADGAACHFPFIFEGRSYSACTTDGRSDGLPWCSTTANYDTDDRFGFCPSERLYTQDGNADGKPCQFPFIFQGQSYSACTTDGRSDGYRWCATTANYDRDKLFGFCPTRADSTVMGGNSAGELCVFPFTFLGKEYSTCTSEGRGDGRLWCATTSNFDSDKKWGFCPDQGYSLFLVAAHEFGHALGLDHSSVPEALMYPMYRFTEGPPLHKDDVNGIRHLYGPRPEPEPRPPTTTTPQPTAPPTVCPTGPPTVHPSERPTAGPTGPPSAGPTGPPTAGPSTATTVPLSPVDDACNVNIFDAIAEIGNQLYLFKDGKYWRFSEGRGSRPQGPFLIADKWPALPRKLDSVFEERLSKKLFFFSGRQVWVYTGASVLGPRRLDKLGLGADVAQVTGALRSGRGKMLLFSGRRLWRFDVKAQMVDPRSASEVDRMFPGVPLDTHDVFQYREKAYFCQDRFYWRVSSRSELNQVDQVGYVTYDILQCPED

Row | MMP-2 inhibition with 10 μM [1] [%] | MMP-8 inhibition with 10 μM [2] [%] | MMP-9 inhibition with 10 μM [3] [%] | Ki [4] [µM] | MT1-MMP inhibition with 10 μM ([4]; 10 μM inhibitor, no explicit Ki value since the dixon plot is non-linear) [%] | Ki [3] [µM] | Ki ([2]; DIXON method) [µM] | Compound | MT1-MMP inhibition with 2.5 μM ([4]; 2.5 μM inhibitor, no explicit Ki value since the dixon plot is non-linear) [% inhi-]
1 | 50 | 25 | 75 | 55 | – | – | – | O=c1c2ccccc2nc2n1[C@H](CS)CS2 (racemic) [Example 4, (R,S)-3-mercaptomethyl-2,3-dihydro-5H-thiazolo[2,3-b]quinazoline-5-one] | –
2 | 80 | 90 | 85 | – | 85 | – | – | O=c1c2ccc(Cl)cc2nc2n1C[C@H](CS)S2 (racemic) [Example 5, (R,S)-8-chloro-2-mercaptomethyl-2,3-dihydro-5H-thiazolo(2,3-b]quinazoline-5-one] | –
3 | 25 | – | – | 21 | – | 15 | 24 | O=C(O)c1ccc2c(=O)n3c(nc2c1)S[C@@H](CS)C3 (racemic) [Example 3, (R,S)-8-carboxy-2-mercaptomethyl-2,3-dihydro-5H-thiazolo [2,3-b]quinazoline-5-one] | –

More lines, now with the values behind:

Row | Compound | MMP-2 inhibition with 10 μM [1] [%] | MMP-8 inhibition with 10 μM [2] [%] | MMP-9 inhibition with 10 μM [3] [%] | Ki [4] [µM] | MT1-MMP inhibition with 10 μM ([4]; 10 μM inhibitor, no explicit Ki value since the dixon plot is non-linear) [%] | Ki [3] [µM] | Ki ([2]; DIXON method) [µM] | MT1-MMP inhibition with 2.5 μM ([4]; 2.5 μM inhibitor, no explicit Ki value since the dixon plot is non-linear) [% inhi-]
4 | O=c1c2ccccc2nc2n1C[C@H](CS)S2 (racemic) [Example 1, (R,S)-2-Mercaptomethyl-2,3-dihydro-5H-thiazolo(2,3-b]-quinazoline-5-one] | 70 | 80 | – | – | – | – | – | 50
5 | C[C@]1(CS)Cn2c(nc3ccccc3c2=O)S1 (racemic) [Example 2, (R,S)-2-mercaptomethyl-2-methyl-2,3-dihydro-5H-thiazolo[2,3-b]quinazoline-5-one] | 50 | 85 | – | 4 | – | 1 | – | –
